Where a chain is given by its changes, count along the chain named. Read-outs that look alike come from different tables or passages of the source.
Assays:
[1] = target: T1, wild type 5-HT3 receptors (Mus musculus, UniProt P23979)
T1 sequence (P23979 24-489): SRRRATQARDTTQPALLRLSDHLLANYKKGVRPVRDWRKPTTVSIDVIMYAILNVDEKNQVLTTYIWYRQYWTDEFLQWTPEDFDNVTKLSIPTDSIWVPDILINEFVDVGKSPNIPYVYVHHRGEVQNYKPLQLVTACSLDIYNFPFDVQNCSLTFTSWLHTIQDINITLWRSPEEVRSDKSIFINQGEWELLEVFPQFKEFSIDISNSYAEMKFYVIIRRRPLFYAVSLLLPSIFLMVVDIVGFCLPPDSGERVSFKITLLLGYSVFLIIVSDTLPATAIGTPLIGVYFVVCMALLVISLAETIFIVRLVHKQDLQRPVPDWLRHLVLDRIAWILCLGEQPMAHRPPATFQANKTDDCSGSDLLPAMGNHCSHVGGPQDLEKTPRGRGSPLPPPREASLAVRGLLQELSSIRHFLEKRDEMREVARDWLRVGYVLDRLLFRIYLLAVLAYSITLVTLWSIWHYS

[2] = target: T2, E218Q mutant 5-HT3 receptor (Mus musculus, UniProt P23979, E218Q); assay type: cell-based; details: 1 mM 5-HT, n > 50
T2 sequence (P23979 24-489 E218Q): T1 sequence (P23979 24-489) with E195Q

[3] = target: T3, E277A/S297R mutant 5-HT3 receptor (Mus musculus, UniProt P23979, E277A/S297R); assay type: cell-based; details: no added MgCl2
T3 sequence (P23979 24-489 E277A/S297R): T1 sequence (P23979 24-489) with E254A, S274R

[4] = target: T4, E215Q mutant 5-HT3 receptor (Mus musculus, UniProt P23979, E215Q); details: no added MgCl2
T4 sequence (P23979 24-489 E215Q): T1 sequence (P23979 24-489) with E192Q

[5] = target: T5, V219L mutant 5-HT3 receptor (Mus musculus, UniProt P23979, V219L); experiment: Whole-cell patch-clamp, V219L mutant in HEK 293 cells; assay type: cell-based; details: 1 mM 5-HT, n > 50
T5 sequence (P23979 24-489 V219L): T1 sequence (P23979 24-489) with V196L

[6] = target: T6, E213Q mutant 5-HT3 receptor (Mus musculus, UniProt P23979, E213Q); experiment: Whole-cell patch-clamp, 5-HT dose-response, E213Q mutant in HEK 293 cells; assay type: cell-based; details: for Hill slope: E213Q, no added MgCl2
T6 sequence (P23979 24-489 E213Q): T1 sequence (P23979 24-489) with E190Q

[7] = target: T7, D204N mutant 5-HT3 receptor (Mus musculus, UniProt P23979, D204N); experiment: Whole-cell patch-clamp, D204N mutant in HEK 293 cells; assay type: cell-based; details: 1 mM 5-HT, n > 50
T7 sequence (P23979 24-489 D204N): T1 sequence (P23979 24-489) with D181N

## NCCc1c[nH]c2ccc(O)cc12 [5-HT, 5-hydroxytryptamine]
[1]; Ext. Ca2+ 0 mM, no added MgCl2
  Hill slope: 2.39 ± 0.18
[1]; Ext. Ca2+ 1 mM, no added MgCl2
  Hill slope: 2.24 ± 0.19
[1]; Ext. Ca2+ 3 mM, no added MgCl2
  Hill slope: 2.08 ± 0.19
[1]; Ext. Ca2+ 10 mM, no added MgCl2
  Hill slope: 2.08 ± 0.26
[1]; physiological conditions (1.0 mM CaCl2, 1.0 mM MgCl2), n = 23
  Hill slope: 2.31 ± 0.25
[2]
  current response to 5-HT: unable to elicit a response
[3]; Ext. Ca2+ 0 mM
  Hill slope: 2.04 ± 0.16
[3]; Ext. Ca2+ 1 mM
  Hill slope: 1.64 ± 0.25
[3]; Ext. Ca2+ 3 mM
  Hill slope: 1.62 ± 0.30
  I/I max: 0.99 ± 0.03
[3]; Ext. Ca2+ 10 mM
  Hill slope: 1.35 ± 0.18
  I/I max: 0.96 ± 0.02
[4]; Ext. Ca2+ 0 mM
  Hill slope: 2.98 ± 0.11
[4]; Ext. Ca2+ 1 mM
  Hill slope: 3.09 ± 0.39
[4]; Ext. Ca2+ 3 mM
  Hill slope: 2.54 ± 0.19
[4]; Ext. Ca2+ 10 mM
  Hill slope: 1.90 ± 0.24
[5]
  current response to 5-HT: unable to elicit a response
[6]; E213Q versus wild type
  rates of desensitisation, faster than wild type responses: ~4 fold
[6]; Ext. Ca2+ 0 mM
  Hill slope: 2.45 ± 0.22
[6]; Ext. Ca2+ 1 mM
  Hill slope: 2.39 ± 0.16
[6]; Ext. Ca2+ 3 mM
  Hill slope: 2.42 ± 0.16
[6]; Ext. Ca2+ 10 mM
  Hill slope: 1.62 ± 0.19
[7]
  current response to 5-HT: unable to elicit a response
